According to patent publication US10238713B2, “Cyclic tetrapeptides and therapeutic applications thereof” (LODZ UNIVERSITY OF TECHNOLOGY, priority 2010, dated 2019):
One block for each compound: values may come before it. Non-standard residues stand in square brackets, D forms with d. Residues, ends and D or L forms follow the SMILES beside them. *: point of attachment. Bip = N[C@@H](Cc1ccc(-c2ccccc2)cc1)C(=O)O; Oic = O=C(O)[C@@H]1C[C@@H]2CCCC[C@@H]2N1; Phe(4-Cl) = N[C@@H](Cc1ccc(Cl)cc1)C(=O)O; β3hW = N[C@H](CC(=O)O)Cc1c[nH]c2ccccc12; Phe(4-F) = N[C@@H](Cc1ccc(F)cc1)C(=O)O; Phe(4-I) = N[C@@H](Cc1ccc(I)cc1)C(=O)O; hPhe = N[C@@H](CCc1ccccc1)C(=O)O; β3hF = N[C@H](CC(=O)O)Cc1ccccc1; tBu = CC(C)(C)*

Assays:
[1] = test system: human PBMC; test: Toxicity test: PBMC survival in 24 h culture (MTT); settings: ANOVA, FIGS. 8A-8F (4B8M repeated per figure)
Protocol: (§2) PBMC were isolated by centrifugation on Ficoll-uropoline gradient (density 1.077 g/ml) (Lymphoprep; PAA Laboratories), at 800×g for 20 min at 4° C. The interphase cells, consisting of lymphocytes (20%) and monocytes (80%) were then washed three times with Hanks' medium and re-suspended in the culture medium at density of 2×10^6 cells/ml.
Appropriate dilutions of DMSO in RPMI 1640 medium were used as controls. Cell survival was determined by the MTT colorimetric method (Hansen et al., J. Immunol. Methods, 1989, pp. 203-210). The data are presented as a mean OD value from quadriplicate wells ±standard error (SE). The cultures “Control (−)” contained only cells in the culture medium.
The assay was performed per Hansen et al., J. Immunol. […] Briefly, 25 μl of MTT (5 mg/ml) stock solution was added per well at the end of cell incubation and the plates were incubated for 3 h in a cell culture incubator. Then, 100 μl of the extraction buffer (20% SDS with 50% DMF, pH 4.7) was added. After additional overnight incubation, the optical density was measured at 550 nm (Dynatech 5000).

[2] = test system: mice, carrageenan-induced foot pad edema; test: Carrageenan-induced foot-pad edema test; format: in vivo, mouse; settings: 4 h after carrageenan; peptides 250 μg i.p., DEX 25 μg i.p., 30 min before; FIGS. 17A-17C
Protocol: (§1) In this and the air-pouch test, 1.5 mg peptide was dissolved in 300 μl of DMSO, then in 0.9% NaCl to achieve the desired dose (250 μg/0.2 ml or 100 μg/0.2 ml). Carrageenan (Sigma) was dissolved in 0.9% aqueous NaCl (overnight). 50 μl of 2% carrageenan solution was injected intradermally into hind foot pads. The peptides were given in a single 250 μg dose (0.2 ml) per mouse intraperitoneally (i.p.), 30 min before carrageenan administration. Dexamethasone (DEX) (Dexaven, Polfa, Poland), a reference drug, was given i.p. in dose 25 μg per mouse. Control mice were administered i.p. appropriately diluted solvent (DMSO in aqueous NaCl) instead of peptides. The foot pads of “background” (BG) mice were injected with 50 μl of 0.9% aqueous NaCl. Foot pad edema was measured with a spring caliper, 2 h, 3 h and 4 h after administration of carrageenan. The results are presented in FIGS. 17A, 17B and 17C as mean values of the antigen-specific increase of the foot pad thickness measured in 5 mice in each experimental group and expressed in mm ±SE (only results from measurements 4 h following administration of carrageenan are presented in figures). Statistics: FIG. 17A: Control vs: DEX P=0.0001; 4B8M P=0.0001; P25 NS (P=1.0000); P28 NS (P=1.0000); P31 NS (P=0.0528); P35 P=0.0008 (ANOVA of Kruskal-Wallis); FIG. 17B: Statistics: Control vs: P22 NS (P=1.0000); P26 NS (P=1.0000); P27 P=0.0050; P30 P=0.0004; P33-b NS (P=1.0000); SP00-b P=0.0001; P00S-b NS (P=1.0000) (ANOVA of Kruskal-Wallis); FIG. 17C: Statistics: Control vs: P21 P=0.0147; P23-2 P=0.0083; P24 P=0.0001; P29 NS (P=0.9999); P32 P=0.0001; P33 NS (P=0.6806); P34 NS (P=0.1920) (ANOVA).

[3] = Solubility in the aqueous culture medium; format: physicochemical
Protocol: RPMI-1640 medium (Cibi/Life Technologies, UK), fetal calf serum (FCS, Gibco), DMSO, phytohemagglutinin A (PHA), lipopolysaccharide (LPS) from E. coli strain O111:B4 (Sigma), […]-2,5-diphenyltetrazolium bromide (MTT), SDS and DMF (Sigma). The culture medium consisted of RPMI-1640, 10% addition of FCS, L-glutamine, sodium pyruvate, 2-mercaptoetanol and antibiotics (streptomycin and penicillin). Cyclic tetrapeptides were initially dissolved in DMSO (5 mg/ml), the dissolved in the culture medium to the desired concentration.
The effects of the peptides on PMBC survival in 24h culture are presented in FIGS. 8A, 8B, 8C, 8D, 8E and 8F. Peptide 4B8M (compound I-A) was included as a reference compound. Appropriate dilutions of DMSO were added to control cultures. […] In the figures, P01=compound I-D, P02=compound I-E, P03=compound I-F, P04=compound I-G, P05=compound I-H, P06=compound I-J, P07=compound I-K, P08=compound I-L, P10a=compound I-M, P10b=compound I-N, P11=compound I-O, P21=compound I-R, P-21b=compound I-Q, P22=compound I-S, P23-2=compound I-U, P24=compound I-V, P25=compound I-X, P25-i=compound I-W, P26=compound I-Y, P27=compound I-Z, P28=compound I-AA, P29=compound I-AB, P30=compound I-AC, P31=compound I-AD, P32=compound I-AE, P33=compound I-AG, P33-b=compound I-AF, P34=compound I-AH, P35=compound I-AI, P00S-b=compound I-AJ, SP00-b=compound I-AL.

[4] = test system: PHA-induced proliferation of human peripheral blood mononuclear cells (PBMC); test: Proliferative response of PBMC to PHA (MTT); format: cell-based; settings: four-day incubation, FIGS. 9A-9F
Protocol: as §2
The isolated PBMC were distributed into 96-well flat-bottom plates in 100 μl aliquots (2×10^5 cells/well). PHA was used at concentration of 5 μg/ml. The compounds were tested at concentrations of 1, 10 and 100 μg/ml. DMSO at appropriate dilutions served as control. After a four-day incubation in a cell culture incubator, the proliferative response of cells was determined by the colorimetric MTT method (Hansen et al., J. Immunol. Methods, 1989, pp. 203-210). The data are presented as a mean OD value from quadriplicate wells ±standard error (SE). The cultures “Control (−)” contained no mitogen (PHA). The cultures “Control (PHA)” contained PHA but not cyclic tetrapeptides.
Briefly, 25 μl of MTT (5 mg/ml) stock solution was added per well at the end of cell incubation and the plates were incubated for 3 h in a cell culture incubator. Then, 100 μl of the extraction buffer (20% SDS with 50% DMF, pH 4.7) was added. After additional overnight incubation, the optical density was measured at 550 nm (Dynatech 5000).

[5] = test system: mice, carrageenan air pouch; test: Carrageenan air-pouch test (exudate cell number); format: in vivo, mouse; settings: peptides 100 μg i.p. one hour before carrageenan, 24 h; FIGS. 18A-18B
Protocol: as §1
Air pouches were formed by subdermal injection into the dorsal region (in a halothane anesthesia) of 5 cm^3 of air (needle 23G x 11/4, 5 ml syringe). On day 3 the air pouches were given an additional 2 ml of air and an inflammatory process was elicited by an intra-pouch injection of 1% of carrageenan in 0.5 ml of 0.9% aqueous NaCl. The peptides were given i.p. at a dose of 100 μg one hour before carrageenan injection into the air pouch. The mice from the “background” (BG) group were given 0.9% aqueous NaCl i.p. and 0.9% aqueous NaCl into the air pouches. Control mice were given appropriately diluted DMSO i.p. and carrageenan into the air pouches. 24 h after carrageenan injection, the mice were sacrificed by cervical dislocation, the air pouches were supplemented with 1 ml of 0.9% aqueous NaCl and the exudates from the air pouches were aspirated using a syringe. The exudates were diluted with 0.9% aqueous NaCl and the cells were counted in a Bürker hemocytometer. Data are presented in FIGS. 18A and 18B as the mean values from 10 mice/group (cell number×10^6 per mouse) ±SE. Then the cells were centrifuged and 0.1 ml of the supernatant was saved for TNF-α determination (see Determination of TNF-α activity, above). The cell pellets were used to perform smears on microscopic glasses, which were stained with Giemsa and May-Grünwald reagents for evaluation of mast cell degranulation. Cell analysis was performed by a histologist using a light microscope and 1000× magnification. The content of intact and degranulated mast cells is given in percentage (mean values from 10 mice/group) ±SE. Statistics: FIG. 18A: BG vs Control P=0.0000; Control vs: DEX P=0.0034; 4B8M P=0.0005; P22 NS (P=0.7275); P26 P=0.0032; P27 NS (P=0.0659); P35 NS (P=1.0000) (ANOVA of Kruskal-Wallis); FIG. 18B: Control vs: P21 NS (P=0.322); P23-2 P=0.0020; P24 P=0.0001; P25 P=0.0418; P28 NS (P=0.3502); P29 NS (P=0.0582); P30 P=0.0006; P31 P=0.0078; P32 P=0.0340; P33 NS (P=0.9993); P34 NS (p=0.0566) (ANOVA).

SMILES: CC(C)(C)OC[C@@H]1NC(=O)[C@@H]2CCCN2C(=O)[C@H](Cc2ccccc2)NC(=O)C[C@H](Cc2ccccc2)NC1=O [I-AJ] (cyclo(FPS(tBu)[β3hF]))
PBMC survival, P vs DMSO at appropriate dilution ([1]; 10 μg/ml): 0.9962
PBMC survival, P vs DMSO at appropriate dilution ([1]; 100 μg/ml): 0.9250
foot pad edema (increase of foot pad thickness), P vs Control [2]: 1.0000
solubility in the aqueous culture medium [3]: incomplete solubility
PHA-induced PBMC proliferation, P vs DMSO at appropriate dilution ([4]; 10 μg/ml): 1.0000
PHA-induced PBMC proliferation, P vs DMSO at appropriate dilution ([4]; 100 μg/ml): 0.7035

SMILES: O=C1C[C@H](Cc2c[nH]c3ccccc23)NC(=O)[C@@H]2CCCN2C(=O)[C@@H]2CCCN2C(=O)[C@H](Cc2ccccc2)N1 [I-AE] (cyclo(FPP[β3hW]))
PBMC survival, P vs DMSO at appropriate dilution ([1]; 10 μg/ml): 0.9954
PBMC survival, P vs DMSO at appropriate dilution ([1]; 100 μg/ml): 0.9984
air pouch exudate cell number, P vs Control [5]: 0.0340
foot pad edema (increase of foot pad thickness), P vs Control [2]: 0.0001
solubility in the aqueous culture medium [3]: incomplete solubility
PHA-induced PBMC proliferation, P vs DMSO at appropriate dilution ([4]; 10 μg/ml): 0.0127
PHA-induced PBMC proliferation, P vs DMSO at appropriate dilution ([4]; 100 μg/ml): 0.0023

SMILES: O=C1C[C@H](Cc2ccccc2)NC(=O)[C@@H]2CCCN2C(=O)[C@@H]2CCCN2C(=O)[C@H](Cc2ccc(I)cc2)N1 [I-W] (cyclo(PP[β3hF][Phe(4-I)]))
PBMC survival, P vs DMSO at appropriate dilution ([1]; 10 μg/ml): 0.9992
PBMC survival, P vs DMSO at appropriate dilution ([1]; 100 μg/ml): 0.9602
solubility in the aqueous culture medium [3]: incomplete solubility
PHA-induced PBMC proliferation, P vs DMSO at appropriate dilution ([4]; 10 μg/ml): 0.0001
PHA-induced PBMC proliferation, P vs DMSO at appropriate dilution ([4]; 100 μg/ml): 0.0001

SMILES: O=C1C[C@H](Cc2ccccc2)NC(=O)[C@@H]2CCCN2C(=O)[C@@H]2CCCN2C(=O)[C@H](Cc2ccc(Cl)cc2)N1 [I-V] (cyclo(PP[β3hF][Phe(4-Cl)]))
PBMC survival, P vs DMSO at appropriate dilution ([1]; 10 μg/ml): 0.9999
PBMC survival, P vs DMSO at appropriate dilution ([1]; 100 μg/ml): 0.1122
air pouch exudate cell number, P vs Control [5]: 0.0001
foot pad edema (increase of foot pad thickness), P vs Control [2]: 0.0001
PHA-induced PBMC proliferation, P vs DMSO at appropriate dilution ([4]; 10 μg/ml): 1.0000
PHA-induced PBMC proliferation, P vs DMSO at appropriate dilution ([4]; 100 μg/ml): 0.4681

SMILES: O=C1C[C@H](Cc2ccccc2)NC(=O)[C@@H]2CCCN2C(=O)[C@@H]2C[C@@H]3CCCC[C@@H]3N2C(=O)[C@H](Cc2ccccc2)N1 [I-AD] (cyclo(F[Oic]P[β3hF]))
PBMC survival, P vs DMSO at appropriate dilution ([1]; 10 μg/ml): 1.0000
PBMC survival, P vs DMSO at appropriate dilution ([1]; 100 μg/ml): 0.9531
air pouch exudate cell number, P vs Control [5]: 0.0078
foot pad edema (increase of foot pad thickness), P vs Control [2]: 0.0528
PHA-induced PBMC proliferation, P vs DMSO at appropriate dilution ([4]; 100 μg/ml): 1.0000

Continued, in another order:

solubility in the aqueous culture medium [3]: incomplete solubility
SMILES: O=C1C[C@H](Cc2ccccc2)NC(=O)[C@@H]2CCCN2C(=O)[C@@H]2CCCN2C(=O)[C@H](CCc2ccccc2)N1 [I-AI] (cyclo(PP[β3hF][hPhe]))
PBMC survival, P vs DMSO at appropriate dilution ([1]; 10 μg/ml): 0.0222
PBMC survival, P vs DMSO at appropriate dilution ([1]; 100 μg/ml): 1.0000
air pouch exudate cell number, P vs Control [5]: 1.0000
foot pad edema (increase of foot pad thickness), P vs Control [2]: 0.0008
PHA-induced PBMC proliferation, P vs DMSO at appropriate dilution ([4]; 100 μg/ml): 1.0000

solubility in the aqueous culture medium [3]: incomplete solubility
SMILES: O=C1C[C@H](Cc2ccccc2)NC(=O)[C@@H]2CCCN2C(=O)[C@@H]2CCCN2C(=O)[C@H](Cc2ccc(-c3ccccc3)cc2)N1 [I-AH] (cyclo([Bip]PP[β3hF]))
PBMC survival, P vs DMSO at appropriate dilution ([1]; 10 μg/ml): 0.0005
PBMC survival, P vs DMSO at appropriate dilution ([1]; 100 μg/ml): 0.0001
air pouch exudate cell number, P vs Control [5]: 0.0566
foot pad edema (increase of foot pad thickness), P vs Control [2]: 0.1920
PHA-induced PBMC proliferation, P vs DMSO at appropriate dilution ([4]; 100 μg/ml): 0.001861

solubility in the aqueous culture medium [3]: incomplete solubility
SMILES: O=C1C[C@H](Cc2ccccc2)NC(=O)[C@@H]2CCCN2C(=O)[C@@H]2CCCN2C(=O)[C@H](Cc2ccc(F)cc2)N1 [I-X] (cyclo(PP[β3hF][Phe(4-F)]))
PBMC survival, P vs DMSO at appropriate dilution ([1]; 10 μg/ml): 0.8597
PBMC survival, P vs DMSO at appropriate dilution ([1]; 100 μg/ml): 0.0001
air pouch exudate cell number, P vs Control [5]: 0.0418
foot pad edema (increase of foot pad thickness), P vs Control [2]: 1.0000
PHA-induced PBMC proliferation, P vs DMSO at appropriate dilution ([4]; 100 μg/ml): 1.0000
